Test results published in paper PMC11988454, “Discovery of synthetic small molecules targeting the central regulator of Salmonella pathogenicity” (Science Advances, 2025).

T1: HilE (Salmonella enterica subsp. enterica …)
T1 chain: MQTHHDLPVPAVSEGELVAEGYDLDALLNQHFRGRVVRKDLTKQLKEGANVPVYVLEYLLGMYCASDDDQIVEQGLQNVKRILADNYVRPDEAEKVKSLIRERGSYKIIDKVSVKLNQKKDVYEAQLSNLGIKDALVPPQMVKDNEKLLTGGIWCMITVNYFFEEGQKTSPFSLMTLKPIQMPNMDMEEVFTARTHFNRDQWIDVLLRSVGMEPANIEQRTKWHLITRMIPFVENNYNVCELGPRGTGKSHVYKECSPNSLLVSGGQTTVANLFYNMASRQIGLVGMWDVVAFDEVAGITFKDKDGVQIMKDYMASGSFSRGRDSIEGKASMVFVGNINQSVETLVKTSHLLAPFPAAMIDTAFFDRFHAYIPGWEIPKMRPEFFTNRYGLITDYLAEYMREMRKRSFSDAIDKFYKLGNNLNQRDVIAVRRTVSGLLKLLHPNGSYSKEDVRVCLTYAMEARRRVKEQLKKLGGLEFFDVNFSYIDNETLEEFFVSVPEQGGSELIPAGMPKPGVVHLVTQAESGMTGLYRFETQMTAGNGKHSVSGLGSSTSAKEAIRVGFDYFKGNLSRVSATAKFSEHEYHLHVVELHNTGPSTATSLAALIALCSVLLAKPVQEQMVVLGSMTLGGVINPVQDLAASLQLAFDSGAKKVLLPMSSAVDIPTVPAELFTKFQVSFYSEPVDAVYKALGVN


Tests used:
HilD [1] = biological target: T2, HilD (Salmonella typhimurium, UniProt P0CL08); assay: nanoDSF thermal stability, HilD; assay type: binding, S. Typhimurium
T2 construct: His6-SUMO (N, cleaved yes); made in house; host or cells: E. coli C41(DE3)
Protocol: Thermal stability of proteins was determined using nanoDSF, with runs performed on a Prometheus NT.48 (NanoTemper Technologies). A twofold serial dilution series of C26 was prepared in DMSO. C26 was added to HilD or HilC (5 μM) in SEC buffer, giving a final DMSO concentration of 1% (v/v). Samples were incubated for >20 min at r.t. and centrifuged for 2 min prior to loading of standard capillaries (no. PR-C002). Samples were heated from 20° to 80°C with a temperature gradient of 0.5°C min^−1. Melting temperatures were calculated from changes in the fluorescence ratio (350/330 nm), using PR.Stability Analysis v1.0.3 and a temperature range of 40° to 70°C for curve fitting. Data analysis was performed using Prism 8.4 (GraphPad). The change in HilD melting temperature, Tm, was fitted as a function of ligand concentration, using Eqs. 1 and 2 to yield apparent affinity (Kd,app) values Tm{[L]0}=Tm,lower+(Tm,upper−Tm,lower)*(1−α{[L]0}) (1) α{[L]0}=[P]t−Kd−[L]t+{[P]t+[L]t+Kd,app}^2−{4[P]t[L]t}/2[P]t (2) where [P]t and [L]t are the total protein and ligand concentrations, respectively.

HeLa cells = assay: Cytotoxicity, CellTox Green Cytotoxicity Assay, HeLa; assay type: cell-based; settings: exposure time 18 h
Protocol: In vitro toxicity of compound C26 was assessed in HeLa cells (ATCC CCL-2) using the ApoTox-Glo Triplex Assay and in macrophages RAW 264.7-LgBiT using the CellTox Green Cytotoxicity Assay (Promega, USA) according to the manufacturer’s instructions. The screening of in vitro toxicity of the compound analogs was performed with the CellTox Green Cytotoxicity Assay (Promega, USA) according to the manufacturer’s instructions. Cells (10^4 cells per well) were seeded into a 96-well plate and incubated for 24 hours at 37°C, 5% (v/v) CO2. Cells were then treated with the compound at different concentrations or 1% (v/v) DMSO in Dulbecco’s modified Eagle’s medium (DMEM) without phenol red at the desired exposure time. Fluorescence intensity was measured with a TECAN Spark microplate reader. Cytotoxicity [relative fluorescence units (RFU)] and viability (RFU) values were plotted to calculate the TC50 using GraphPad Prism 10.1.1.
Compound concentration (µM) […]
in vitro cytotoxicity of C26 and analogs. Cytotoxicity assessed with CellTox™ Green Cytotoxicity Assay with an exposure time of 18 h. N = 3 biological replicates. Data were plotted and TC50 values were generated with GraphPad Prism 10.1.1.
(1 picture or pasted object on this page, not shown here)

HilD [2] = biological target: T3, HilD (Salmonella typhimurium, UniProt E1WAC0); assay: Whole-cell HilD activity assay (PhilA-sfGFP activation); assay type: cell-based, S. Typhimurium; settings: for activity in PhilA activation assay, in words: CDCA: highest tested concentration 100 μM
T3 construct: endogenous in cells; host or cells: S. Typhimurium SL1344 strain PhilA-sfGFP
Protocol: A whole-cell reporter gene assay was used to quantify HilD transcriptional activity. Strain PhilA-sfGFP and the isogenic ΔhilD PhilA-sfGFP were used for this purpose. Cultures were performed in 1 ml of LB supplemented with 0.3 M NaCl. Compounds at different concentrations or 1% (v/v) DMSO were added to the corresponding tubes. Cultures were incubated at 37°C and 180 rpm for 5 hours. Cells were pelleted, resuspended in 100 μl of PBS, and then transferred into a 96-well black clear-bottom plate (Thermo Fisher Scientific, USA). Fluorescence intensity was measured with a Tecan Spark microplate reader with an excitation wavelength of 485 nm and an emission wavelength of 510 nm. Dose-response curves and IC50 values were calculated using CDD Vault.

HilD dimer = biological target: T4, HilD dimer (Salmonella typhimurium, UniProt P0CL08); assay: BS3 cross-linking of HilD; assay type: biochemical, S. Typhimurium; settings: oleic acid 50 and 100 μM; C26 up to 200 μM
T4 construct: His6-SUMO (N, cleaved yes); made in house; host or cells: E. coli C41(DE3)
Protocol: BS^3 cross-linking of HilD was performed as previously described ([39]). In summary, HilD (10 μM) was first incubated with C26 or oleic acid in SEC buffer for 20 min at r.t., with a final DMSO concentration of 1% (v/v). HilD was then cross-linked by incubation with 0.2 mM BS^3 (Thermo Fisher Scientific, Pierce, A39266) at r.t. for 1 hour, before the reaction was quenched by the addition of 50 mM Tris (pH 7.5). Samples were analyzed using SDS-PAGE and visualized by silver staining.

HilD-HilE heterodimer = HilD-HilE heterodimer (Salmonella typhimurium, UniProt P0CL08); assay: MST dimerization assay HilD-HilE; assay type: binding, S. Typhimurium; settings: 100 μM compound
Protocol: MST measurements for the binding of HilD to HilE were performed as previously described ([39]). In summary, enhanced yellow fluorescent protein (EYFP)-HilD (100 nM) was incubated with 100 μM either oleic acid or C26 [with a final concentration of 1% (v/v) DMSO] for 10 min at r.t. (22° to 25°C) and subsequently mixed 1:1 with varying concentrations of HilE. Samples were incubated together for 10 min at r.t., centrifuged for 5 min, and loaded to standard capillaries (NanoTemper Technologies GmbH, no. MO-K022). MST runs were performed at 25°C on a NanoTemper Monolith NT.115, with an excitation power of 60% and medium MST power. Data were analyzed using the MO.Affinity Analysis v2.3 software, and affinity constants were calculated using the Kd model.

HilE [3] = biological target: T1, HilE; assay: MST; 100 uM C26
SEC-MALS = biological target: the molecule itself; assay: SEC-MALS
HilE [4] = biological target: T1, HilE; assay: MST; 1% DMSO

Molecule | Kd (HilD [1]) [µM] | TC50 cytotoxicity (HeLa cells) [µM] | IC50 (HilD [2]) [µM] | also measured
CN(CC(=O)NCc1ccc2c(c1)OCO2)Cc1ccc(Br)cc1 [SW-C116] | > 100 | > 100 | 68.3 | 
CN(CC(=O)NCc1ccc2c(c1)OCO2)Cc1ccccc1Br [SW-C165, N-(benzo[d][1,3]dioxol-5-ylmethyl)-2-[(2-bromobenzyl)(methyl)amino]acetamide] | > 100 | > 100 | > 100 | 
C[C@H](CCC(=O)O)[C@H]1CC[C@H]2[C@@H]3[C@H](O)C[C@@H]4C[C@H](O)CC[C@]4(C)[C@H]3CC[C@]12C [CDCA, chenodeoxycholic acid, reference compound] |  |  |  | activity in PhilA activation assay, in words (HilD [2]): No activity
CN(CC(=O)NCc1cc(Cl)cc(Cl)c1)Cc1ccc(Br)s1 [SW-C250, 2-{[(5-Bromothiophen-2-yl)methyl](methyl)amino}-N-(3,5-dichlorobenzyl)acetamide] | 1.8 | > 100 | 3.2 | 
CN(CC(=O)NCc1ccc2c(c1)OCO2)Cc1ccc(Br)o1 [SW-C210, N-(benzo[d][1,3]dioxol-5-ylmethyl)-2-{[(5-bromofuran-2-yl)methyl](methyl)amino}acetamide] | > 100 | > 100 | > 100 | 
CN(CC(=O)NCc1ccc2c(c1)OC(F)(F)O2)Cc1ccc(Br)s1 [SW-C182, 2-{[(5-Bromothiophen-2-yl)methyl](methyl)amino}-N-[(2,2-difluorobenzo[d][1,3]dioxol-5-yl)methyl]acetamide] | 2.7 | 49.9 | 4.9 | 
CCCCCC/C=C\CCCCCCCC(=O)O [palmitoleic acid, reference compound] |  |  | 25.8 | 
CCCCCCCC/C=C\CCCCCCCC(=O)O [oleic acid, reference compound] |  |  | 25.1 | levels of cross-linked HilD dimer (HilD dimer): Decreased levels of the cross-linked HilD dimer; formation of HilD-HilE heterodimers (HilD-HilE heterodimer): disrupted the binding of HilE to HilD
CN(CC(=O)NCc1ccc(O)c(O)c1)Cc1ccc(Br)s1 [SW-C170, 2-{[(5-Bromothiophen-2-yl)methyl](methyl)amino}-N-(3,4-dihydroxybenzyl)acetamide] | > 100 | > 100 | > 100 | activity in PhilA activation assay, in words (HilD [2]): complete loss of activity
CN(CC(=O)NCc1ccccc1)Cc1ccc(Br)s1 [SW-C103] | 28.8 | > 100 | 34.4 | 
CN(CC(=O)NCc1ccc(Cl)cc1)Cc1ccc(Br)s1 [SW-C202, 2-{[(5-Bromothiophen-2-yl)methyl](methyl)amino}-N-(4-chlorobenzyl)acetamide] | 4.1 | 87.3 | 3.9 | 
Cc1ccc(CN(C)CC(=O)NCc2ccc3c(c2)OCO3)s1 [SW-C153] | 8.8 | > 100 | 63.1 | 
CCCCCCCCCCCCC/C=C\C(=O)O [c2-HDA, cis-2-hexadecenoic acid, reference compound] |  |  | 0.21 | 
HilD (natural protein, also called HilDWT; recombinant HilD; source: E. coli C41(DE3), purified (Ni-NTA, SUMO protease cleavage, second Ni-NTA, SEC)) MENVTFVSNSHQRPAADNLQKLKSLLTNTRQQIKSQTQQVTIKNLYVSSFTLVCFRSGKLTISNNHDTIYCDEPGMLVLKKEQVVNVTLEEVNGHMDFDILEIPTQRLGALYALIPNEQQTKMAVPTEKAQKIFYTPDFPARREVFEHLKTAFSCTKDTSKGCSNCNNKSCIENEELIPYFLLFLLTAFLRLPESYEIILSSAQITLKERVYNIISSSPSRQWKLTDVADHIFMSTSTLKRKLAEEGTSFSDIYLSARMNQAAKLLRIGNHNVNAVALKCGYDSTSYFIQCFKKYFKTTPSTFIKMANH |  |  |  | Kd (HilE [3]): 1.71 µM; stoichiometry N (SEC-MALS): 2; Kd (HilE [4]): 1.7 µM
